Series [1] concerns Schistosoma japonicum. The series is described as follows: Anti-schistosomal activity against adult Schistosoma japonicum assessed as worm mortality at 100 uM measured at 4 hrs relative to control. It is filed as functional.
In series [2] the test system is Schistosoma japonicum. Nature of the series: Anti-schistosomal activity against adult Schistosoma japonicum assessed as worm mortality at 100 uM measured at 8 hrs relative to control. It is filed as functional.
For series [3], the system named is Schistosoma japonicum. The series is described as follows: Anti-schistosomal activity against adult Schistosoma japonicum assessed as worm mortality at 100 uM measured at 12 hrs relative to control. Type of series: functional.
The subject of series [4] is Schistosoma japonicum. The series is described as follows: Anti-schistosomal activity against adult Schistosoma japonicum assessed as worm mortality at 100 uM measured at 24 hrs relative to control. It is filed as functional.
Series [5] has as its system Schistosoma japonicum. The series is described as follows: Anti-schistosomal activity against adult Schistosoma japonicum assessed as worm mortality at 100 uM measured at 48 hrs relative to control. Type of series: functional.
Series [6] relates to Schistosoma japonicum. The series is described as follows: Anti-schistosomal activity against adult Schistosoma japonicum assessed as worm mortality at 100 uM measured at 72 hrs relative to control. It is filed as functional.
Series [7] has as its system Schistosoma japonicum. Nature of the series: Anti-schistosomal activity against adult Schistosoma japonicum measured at 72 hrs. It is filed as functional, organism-based.
Series [8] concerns Schistosoma japonicum. The series is described as follows: Anti-schistosomal activity against adult Schistosoma japonicum infected in ICR mouse assessed as number of worms at 25 mg/kg, ip administered for 7 days. Particulars: time 7 day. Type of series: functional.
Series [9] relates to Schistosoma japonicum. Nature of the series: Anti-schistosomal activity against juvenile Schistosoma japonicum infected in ICR mouse assessed as number of worms at 25 mg/kg, ip administered for 7 days. It is filed as functional. To be noted: time 7 day.
The test system of series [10] is Schistosoma japonicum. The series is described as follows: Anti-schistosomal activity against adult Schistosoma japonicum infected in ICR mouse assessed as reduction in worm burden at 25 mg/kg, ip administered for 7 days. More on the design: scale not given: the % may be the effect or the level left. Type of series: functional. To be noted: time 7 day.
In series [11] the test system is Schistosoma japonicum. Nature of the series: Anti-schistosomal activity against juvenile Schistosoma japonicum infected in ICR mouse assessed as reduction in worm burden at 25 mg/kg, ip administered for 7 days. Particulars: time 7 day. It is filed as functional. The arrangement: scale not given: the % may be the effect or the level left.
Series [12] can be described thus: Toxicity in ICR mouse infected with Schistosoma japonicum assessed as serum BUN level at 25 mg/kg, ip administered for 7 days. It is filed as organism-based. To be noted: in vivo, 168 h, time 7 day.
Series [13] has as its system Schistosoma japonicum. The series is described as follows: Anti-schistosomal activity against female adult Schistosoma japonicum assessed as loss of tegumental architecture at 25 uM measured after 72 hrs by SEM analysis. Type of series: functional, organism-based.
Series [14] concerns Schistosoma japonicum. Nature of the series: Anti-schistosomal activity against male adult Schistosoma japonicum assessed as loss of tegumental architecture at 25 uM measured after 72 hrs by SEM analysis. Type of series: functional, organism-based.
Series [15] relates to Schistosoma japonicum. The series is described as follows: Anti-schistosomal activity against male adult Schistosoma japonicum assessed as appearance of intact tegument surface at 25 uM measured for 72 hrs by SEM analysis. Type of series: functional, organism-based.
Series [16] relates to Schistosoma japonicum. The series is described as follows: Anti-schistosomal activity against male adult Schistosoma japonicum assessed as appearance of sensory papillae at 25 uM measured for 72 hrs by SEM analysis. It is filed as functional, organism-based.
Series [17] has as its system Schistosoma japonicum. The series is described as follows: Anti-schistosomal activity against male adult Schistosoma japonicum assessed as appearance of parallel wrinkles at 25 uM measured for 72 hrs by SEM analysis. It is filed as functional, organism-based.
For series [18], the system named is Schistosoma japonicum. The series is described as follows: Anti-schistosomal activity against male adult Schistosoma japonicum assessed as surface destabilization at 25 uM measured for 72 hrs by SEM analysis. It is filed as functional, organism-based.
Series [19] relates to Schistosoma japonicum. The series is described as follows: Anti-schistosomal activity against male adult Schistosoma japonicum assessed as complete loss of sucker-associated muscular architecture at 25 uM measured for 72 hrs by SEM analysis. Type of series: functional, organism-based.
The subject of series [20] is Schistosoma japonicum. The series is described as follows: Anti-schistosomal activity against male adult Schistosoma japonicum assessed as appearance of degradation of subtegumental matrix at 25 uM measured for 72 hrs by SEM analysis. It is filed as functional, organism-based.
Series [21] deals with Schistosoma japonicum. Nature of the series: Anti-schistosomal activity against juvenile Schistosoma japonicum infected in ICR mouse assessed as somatic degeneration at 25 mg/kg, ip administered for 7 days. Type of series: functional, organism-based. To be noted: time 7.0 day.
Series [22] in a line: Acute toxicity in ICR mouse assessed as TBIL level at 1144 mg/kg, po administered for 7 days. To be noted: in vivo, 168 h, time 7 day. It is filed as organism-based.
A short description of series [23]: Acute toxicity in ICR mouse assessed as AST level at 1144 mg/kg, po administered for 7 days. Type of series: organism-based. Particulars: in vivo, 168 h, time 7 day.
Series [24] is described as follows: Acute toxicity in ICR mouse assessed as ALT level at 1144 mg/kg, po administered for 7 days. Type of series: organism-based. To be noted: in vivo, 168 h, time 7 day.
The nature of series [25]: Acute toxicity in ICR mouse assessed as BUN level at 1144 mg/kg, po administered for 7 days. Type of series: organism-based. To be noted: in vivo, 168 h, time 7 day.

This is an account of results in ChEMBL document CHEMBL6182876, “Design, synthesis and preliminary structure-activity relationship of 2-iminothiazolidine-4-one derivatives against Schistosoma japonicum in vitro and in vivo” (Eur J Med Chem, 2025).

For orientation: mortality means the share of the test organisms that died. For orientation: IC50 means the concentration at which inhibition is half-maximal.

Active and inactive are the calls of the source. The rule behind the calls is not given here.

With `CCOC(=O)/C=C1\S/C(=N\c2ccccc2)N(CCCN2CCN(C)CC2)C1=O`, the mortality at 100 µM in series [1] amounted to 0%; in series [2], 0%; in series [3], 0%; in series [4] it was 10%; in series [5] it was 100%; in series [6] it was 100%. This compound also displayed an IC50 in series [7] of 75.6 µM.

For the compound `CCOC(=O)/C=C1\S/C(=N\c2ccc(Cl)cc2)N(CCCN2CCN(C)CC2)C1=O`, the mortality at 100 µM in series [1] was 0%; in series [2], 40%; in [3] it was 80%; in series [4], 100%; in series [5], 100%; in series [6] it was 100%. Also, the midpoint of inhibition in series [7], the IC50, lay at 41.8 µM.

As for `CCOC(=O)/C=C1\S/C(=N\c2ccccc2Cl)N(CCCN2CCN(C)CC2)C1=O`, the mortality at 100 µM is 10% in series [1]; 40% in series [2]; 100% in [3]; 100% in series [4]; 100% in series [5]; 100% in series [6]. The IC50 in [7] is 30.4 µM. The Activity in series [8] is 37%; in series [9] it was 30%; in series [10], 26%; in series [11], 30%; in series [12] it was 7.9 mM.

On to `CCOC(=O)/C=C1\S/C(=N\c2ccccc2)N(CCCN2CCOCC2)C1=O`, for which the mortality at 100 µM was 0% in [1]; 0% in series [2]; 0% in series [3]; 0% in series [4]; 0% in series [5]; 100% in series [6]. Besides, inhibition in series [7] was half-maximal at 91.3 µM (IC50).

Turning to `CCOC(=O)/C=C1\S/C(=N\c2ccc(Br)cc2)N(CCCN2CCN(C)CC2)C1=O`, the mortality at 100 µM amounted to 0% in series [1]; 30% in [2]; 60% in [3]; 100% in series [4]; 100% in series [5]; 100% in [6]. In series [7], the IC50 amounted to 35.4 µM.

For the compound `O=C(C1CCCCC1)N1CC(=O)N2CCc3ccccc3C2C1` (stereo not given) [PRAZIQUANTEL], the mortality at 100 µM in series [1], in series [2], in [3], in series [4], in [5] and in series [6] was 100% throughout. This compound also displayed an IC50 in series [7] of 43.8 µM. In addition, the result in [13], in series [14], in series [15], in series [16], in series [17] and in series [18] was Active. In addition, the outcome in series [19], in series [20] and in [21] was Active. In addition, the Activity in [8] was found to be 7%; in series [9] it was 22%; in series [10] it was 86%; in [11], 49%; in series [12], 22.1 mM; in series [22], 3.76 µM. For the same compound, the Activity in series [23] stood at 57 U/L; in series [24] it was 136 U/L; in series [25], 7.93 mM.

Consider `CCOC(=O)/C=C1\S/C(=N\c2cc(F)ccc2F)N(CCCN2CCN(C)CC2)C1=O`, for which the mortality at 100 µM in series [1] turned out to be 0%; in [2], 0%; in series [3] it was 0%; in [4] it was 30%; in [5], 100%; in [6], 100%. Further, the IC50 in [7] was 31.2 µM.

In the case of `CCOC(=O)/C=C1\S/C(=N\c2cccc(Br)c2)N(CCCN2CCN(C)CC2)C1=O`, the mortality at 100 µM in [1] was found to be 0%; in [2], 30%; in series [3], 80%; in [4] it was 100%; in series [5] it was 100%; in series [6], 100%. 35.1 µM corresponded to half-maximal inhibition in [7] (IC50).

With `CCOC(=O)/C=C1\S/C(=N\c2ccc(OC)cc2)N(CCCN2CCN(C)CC2)C1=O`, the mortality at 100 µM in series [1] worked out at 0%; in series [2], 0%; in [3], 0%; in [4], 0%; in series [5], 10%; in series [6] it was 30%. The concentration for half-maximal inhibition (IC50) in series [7] came to 95.7 µM.

In the case of `CCOC(=O)/C=C1\S/C(=N\c2ccccc2C(F)(F)F)N(CCCN2CCN(C)CC2)C1=O`, the mortality at 100 µM in series [1] was 0%; in [2] it was 40%; in series [3] it was 100%; in series [4], 100%; in [5], 100%; in [6] it was 100%. The compound also came in with an IC50 in series [7] of 33.2 µM.

Take `CCOC(=O)/C=C1\S/C(=N\c2ccccc2)N(CCCN(C)C)C1=O`: the mortality at 100 µM in [1] was found to be 0%; in [2], 0%; in [3] it was 0%; in [4] it was 10%; in series [5], 40%; in series [6], 100%. The compound also came in with an IC50 in series [7] of 97.7 µM.

Regarding `CCOC(=O)/C=C1\S/C(=N\C)N(CCCN2CCN(C)CC2)C1=O`, the mortality at 100 µM in series [1], in series [2], in series [3], in series [4], in series [5] and in [6] was 0% in each case. In series [7], this compound displayed an IC50 of over 100 µM.

As for `CCOC(=O)/C=C1\S/C(=N\c2ccccc2)N(CCN2CCC(Cc3ccccc3)CC2)C1=O`, the mortality at 100 µM in series [1] came out at 0%; in series [2], 0%; in series [3], 0%; in series [4] it was 0%; in series [5], 20%; in series [6] it was 70%. The same compound registered an IC50 in series [7] of 91.3 µM.

Consider `CCOC(=O)/C=C1\S/C(=N\c2ccccc2)N(CCN2CCCCC2)C1=O`, for which the mortality at 100 µM amounted to 0% in series [1]; 0% in [2]; 0% in series [3]; 0% in [4]; 10% in series [5]; 50% in [6]. Moreover, the IC50 in series [7] was over 100 µM.

`CCOC(=O)/C=C1\S/C(=N\c2ccccc2)N(CCN2CCOCC2)C1=O`: the mortality at 100 µM in series [1] amounted to 0%; in series [2], 0%; in [3], 0%; in [4], 0%; in [5], 40%; in [6] it was 60%. Moreover, inhibition in [7] was half-maximal at 93.1 µM (IC50).

As for `CCOC(=O)/C=C1\S/C(=N\c2ccccc2)N(Cc2ccccc2)C1=O`, the mortality at 100 µM in series [1], in series [2], in [3], in [4], in series [5] and in series [6] was 0% throughout. This compound displayed an IC50 in [7] of over 100 µM.
